# Experimental data from ChEMBL document CHEMBL5370669, “Isolation and Structure Determination of Akunolides, Macrolide Glycosides from a Marine Okeania sp. Cyanobacterium” (J Nat Prod, 2023).
# pIC50: −log10 of the molar value.
# Test system: Trypanosoma brucei rhodesiense
# Assay: Antitrypanosomal activity against blood stream form of Trypanosoma brucei rhodesiense IL-1501 assessed as growth inhibition incubated for 69 hrs by alamar blue staining based microplate fluorescence scanner analysis
# Type: functional, organism-based
# Settings: IL-1501, 69 h
row,Compound,pIC50
1,N=C(N)c1ccc(OCCCCCOc2ccc(C(=N)N)cc2)cc1 [PENTAMIDINE],8.22
2,C=CCCC/C=C/C=C/[C@H]1OC(=O)C[C@@H]2O[C@H](C[C@H](O)C[C@H](C)C[C@@H](O)C1(C)C)C[C@H](O[C@@H]1OC[C@@H](OC)[C@H](O)[C@H]1O)C2(C)C,4.92

# Now from value to molecule:
row,pIC50,Compound
1,4.96,C#CCCC/C=C/C=C/[C@H]1OC(=O)C[C@@H]2O[C@H](C[C@H](O)C[C@H](C)C[C@@H](O)C1(C)C)C[C@H](O[C@@H]1OC[C@@H](OC)[C@H](OC)[C@H]1O)C2(C)C
2,4.96,C=CCCC/C=C/C=C/[C@H]1OC(=O)C[C@@H]2O[C@H](C[C@H](O)C[C@H](C)C[C@@H](O)C1(C)C)C[C@H](O[C@@H]1OC[C@@H](OC)[C@H](OC)[C@H]1O)C2(C)C
3,4.85,CCCCC/C=C/C=C/[C@H]1OC(=O)C[C@@H]2O[C@H](C[C@H](O)C[C@H](C)C[C@@H](O)C1(C)C)C[C@H](O[C@@H]1OC[C@@H](OC)[C@H](O)[C@H]1O)C2(C)C

# Test system: not listed separately
# Assay: Growth inhibition of human WI-38 cells incubated for 72 hrs by MTT assay
# Type: toxicity, cell-based
# Settings: not given
row,Compound,IC50 at 72 h [µM]
1,C#CCCC/C=C/C=C/[C@H]1OC(=O)C[C@@H]2O[C@H](C[C@H](O)C[C@H](C)C[C@@H](O)C1(C)C)C[C@H](O[C@@H]1OC[C@@H](OC)[C@H](OC)[C@H]1O)C2(C)C,> 150
2,C=CCCC/C=C/C=C/[C@H]1OC(=O)C[C@@H]2O[C@H](C[C@H](O)C[C@H](C)C[C@@H](O)C1(C)C)C[C@H](O[C@@H]1OC[C@@H](OC)[C@H](O)[C@H]1O)C2(C)C,> 150
3,C=CCCC/C=C/C=C/[C@H]1OC(=O)C[C@@H]2O[C@H](C[C@H](O)C[C@H](C)C[C@@H](O)C1(C)C)C[C@H](O[C@@H]1OC[C@@H](OC)[C@H](OC)[C@H]1O)C2(C)C,55
4,CCCCC/C=C/C=C/[C@H]1OC(=O)C[C@@H]2O[C@H](C[C@H](O)C[C@H](C)C[C@@H](O)C1(C)C)C[C@H](O[C@@H]1OC[C@@H](OC)[C@H](O)[C@H]1O)C2(C)C,49

# Test system: not listed separately
# Assay: Selectivity ratio of IC50 for cytotoxicity against human WI-38 cells to IC50 for antitrypanosomal activity against Trypanosoma brucei rhodesiense IL-1501
# Type: toxicity, cell-based
# Settings: not given
row,Compound,selectivity ratio
1,C#CCCC/C=C/C=C/[C@H]1OC(=O)C[C@@H]2O[C@H](C[C@H](O)C[C@H](C)C[C@@H](O)C1(C)C)C[C@H](O[C@@H]1OC[C@@H](OC)[C@H](OC)[C@H]1O)C2(C)C,> 15
2,C=CCCC/C=C/C=C/[C@H]1OC(=O)C[C@@H]2O[C@H](C[C@H](O)C[C@H](C)C[C@@H](O)C1(C)C)C[C@H](O[C@@H]1OC[C@@H](OC)[C@H](O)[C@H]1O)C2(C)C,> 15
3,C=CCCC/C=C/C=C/[C@H]1OC(=O)C[C@@H]2O[C@H](C[C@H](O)C[C@H](C)C[C@@H](O)C1(C)C)C[C@H](O[C@@H]1OC[C@@H](OC)[C@H](OC)[C@H]1O)C2(C)C,5
